Experimental data reported in patent US5238926A, “Anti-fungal agents” (priority 1992, dated 1993).
≈ marks a conversion by molar mass, not a printed value.

Legend:
[1] = In vitro anti-fungal activity, microtiter minimum inhibitory concentration (MIC) test, sensitive strains (MIC-S); assay type: cell-based; conditions: 48 h, pH 5.4, read-out: MIC-S
Description: (§1) The minimum inhibitory concentrations (MIC-R and MIC-S) were determined in accordance with the procedure set forth just below.
(§2) In vitro anti-fungal activity was determined in microtiter minimum inhibitory concentration (MIC) tests using Yeast Nitrogen […] (YNB without amino acids, Difco., Detroit, Mich.) at pH 5.4. Yeasts were grown overnight in Sabouraud Dextrose Broth. at 28° C. with shaking, and concentrations adjusted in sterile saline using a spectrophoptometer at 540 mμ. Compounds were dissolved in various vehicles and diluted in media to twice the final concentrations. The Cetus Pro/Pette system was used to serially dilute 50 μl in round bottom 96 well plates (Falcon, Lincoln Park, NJ.). The turbidometrically adjusted yeast suspensions were diluted 1:3,000 in YNB. These dilutions when added to the wells, produced a final inoculum of 3×10^3 /ml. Plates were incubated at 37° C. for 48 hours. MICs were defined as the lowest concentrations of compound that prevented visible growth. MICs were taken against the following organisms and expressed in the table above as the geometric mean. MIC-R and MIC-S mean respectively, MICs taken against resistant and sensitive strains.
Candida parapsilosis C67
Candida tropicalis C112
Torulopsis glabrata C95
Candida pseudotropicalis C967
Candida gullermondii C137
Sacchararomyces mutant C147

[2] = test system: Resistant Strains (Candida albicans C79, C6, C8, C31, C54, C70, C104, C138, C140; Candida stellatoidea C45); test: In vitro anti-fungal activity, microtiter minimum inhibitory concentration (MIC) test, resistant strains (MIC-R); assay type: cell-based; conditions: 48 h, pH 5.4, read-out: MIC-R
Description: as §1, §2
Candida stellatoidea C45

CCCCCCCCCCCCNC(=O)[C@@H](NC(=O)[C@@H](N)CC[S+](C)[O-])[C@H]1O[C@@H](n2ccc(=O)[nH]c2=O)[C@H](O)[C@@H]1O (stereo partly shown)
MIC [1]: 181 µg/mL (≈ 301 µM)
MIC [2]: 181 µg/mL (≈ 301 µM)

CCCCCCCCCCCCNC(=O)[C@@H](NC(=O)[C@@H](N)C(C)CSC)[C@H]1O[C@@H](n2ccc(=O)[nH]c2=O)[C@H](O)[C@@H]1O (stereo partly shown)
MIC [1]: 34 µg/mL (≈ 56.7 µM)
MIC [2]: 23 µg/mL (≈ 38.3 µM)

CCCCCCCCCCCCNC(=O)[C@@H](NC(=O)[C@@H](N)CCOC)[C@H]1O[C@@H](n2ccc(=O)[nH]c2=O)[C@H](O)[C@@H]1O
MIC [1]: 111 µg/mL (≈ 195 µM)
MIC [2]: 52 µg/mL (≈ 91.3 µM)

CCCCCCCCCCCCNC(=O)[C@@H](NC(=O)[C@@H](N)CSCc1ccccc1)[C@H]1O[C@@H](n2ccc(=O)[nH]c2=O)[C@H](O)[C@@H]1O
MIC [1]: > 147 µg/mL
MIC [2]: 111 µg/mL (≈ 171 µM)

CCCCCCCCCCC(N)C(=O)N[C@H](C(N)=O)[C@H]1O[C@@H](n2ccc(=O)[nH]c2=O)[C@H](O)[C@@H]1O (stereo partly shown)
MIC [1]: > 256 µg/mL
MIC [2]: > 256 µg/mL

CCCCCCCCCCCCNC(=O)[C@@H](NC(=O)[C@@H](N)CCCC)[C@H]1O[C@@H](n2ccc(=O)[nH]c2=O)[C@H](O)[C@@H]1O
MIC [1]: 19.7 µg/mL (≈ 34.7 µM)
MIC [2]: 13 µg/mL (≈ 22.9 µM)

CCCCCCCCCCCCNC(=O)[C@@H](NC(=O)C1(N)CC2CCC1C2)[C@H]1O[C@@H](n2ccc(=O)[nH]c2=O)[C@H](O)[C@@H]1O (stereo partly shown)
MIC [1]: 315 µg/mL (≈ 532 µM)
MIC [2]: 104 µg/mL (≈ 176 µM)

C=C[C@@H](C)[C@H](N)C(=O)N[C@H](C(=O)NCCCCCCCCCCCC)[C@H]1O[C@@H](n2ccc(=O)[nH]c2=O)[C@H](O)[C@@H]1O [6'-dodecylamido-5-N-[2-S-amino-3-R-methyl-4-pentenoyl]-UPOC]
MIC [1]: 26 µg/mL (≈ 46 µM)
MIC [2]: 18 µg/mL (≈ 31.8 µM)
